Data on 17 compounds can be found in US5922734A, “6-[triazolyl[3-(trifluoromethyl)phenyl]methyl]-2-quinolines and -quinolinethiones” (Janssen Pharmaceutica, N.V., priority 1994, dated 1999).

A word on the IC50: it is the midpoint of a concentration-inhibition curve. Low readings indicate higher potency, high ones lower potency.

The test system of assay [1] is estradiol undecylate induced keratinization effects. In words: Vaginal Keratinization Test on Ovariectomized Rats. Format: in vivo. The conditions noted are these: Rattus norvegicus, po, lowest active dose. As for the experimental part: Ovariectomized rats were injected subcutaneously with a sesame oil solution containing 100 μg of estradiol undecylate in a volume of 0.1 ml per 100 g body weight and control animals were injected with sesame oil. On day one, two and three, test animals were treated once daily with a per os dose of the test compound and control animals with the drug vehicle (PEG 200). One day after the last treatment, the animals were sacrificed and their vaginas were processed for histological evaluation according to the method described in J. Pharmacol. Exp. Ther. 261(2), 773-779 (1992). A dose at which 50% of the tested rats show complete suppression of the estradiol undecylate induced keratinization effects is defined as an active dose.
In said table, the keratinization effect of the present compound number 3 is compared to the structurally closest art-known compounds, the latter being disclosed in EP-0,371,564.

Assay [2] concerns retinoic acid (RA) metabolism. In words: Inhibition of retinoic acid (RA) metabolism in MCF-7 human breast cancer cells. The conditions noted are these: MCF7, 3H-RA substrate, Table 1. Format: cell-based. As for the experimental part:
MCF-7 human breast cancer cells were grown as stock cultures according to art-known protocols. One day before the experiment, RA is added to the stock cultures to stimulate RA-metabolism. At the start of the experiment, cell suspensions were incubated in a tissue culture medium containing ^3 H-RA as the substrate. Different concentrations of the test compound (dissolved in 1% DMSO) were added to the incubation mixtures, and at the end of the incubation, the unmetabolized RA is separated from its polar metabolites. The fraction containing the polar ^3 H-labelled metabolites was collected and counted in a scintillation counter. For each experiment, a control and a blank incubation were run in parallel. The IC50 values listed in table 1 are the concentrations needed to reduce the amount of metabolites to 50% of the control.

[3] abbreviates: 72 h, 50% of ovariectomized rats show complete suppression, per os once daily, 3 days, Table 1, read-out: Keratinization (LAD in mg/kg).
The mark [4] stands for this setting: keratinization effect, per os, ovariectomized rats, comparison with EP-0,371,564 compounds, Table 2, read-out: LAD.

Structures are written as SMILES. Read-outs that look alike come from different tables or passages of the source. A value given as a limit tells only on which side of the number the result lay.

For the compound `CC(C)C(c1cccc(C(F)(F)F)c1)(c1ccc2[nH]c(=O)ccc2c1)n1cncn1` (centres unmarked) [Compound 7], in assay [1] (setting [3]), the minimal effective dose is greater than 20 mg/kg. The same compound showed an IC50 in assay [2] of 270 nM.
The like results for `Cn1c(=O)ccc2cc(C(c3cccc(C(F)(F)F)c3)n3cncn3)ccc21` (racemic) [Compound 12, (±)-1methyl-6-[1H-1,2,4-triazol-1-yl[3-(trifluoromethyl)phenyl]methyl]-2(1H)-quinolinone] were, in that order, 2.5 mg/kg and 8590 nM.
Turning to `FC(F)(F)c1cccc(C(c2ccc3ncccc3c2)n2cncn2)c1` (centres unmarked) [Compound 66-a, reference compound], the minimal effective dose in assay [1] (setting [4]) was 10 mg/kg.
In the case of `O=c1ccc2cc(C(F)(c3cccc(C(F)(F)F)c3)n3cncn3)ccc2[nH]1` (centres unmarked) [Compound 5], in assay [1] (setting [3]), the minimal effective dose stood at 5 mg/kg. In assay [2], this compound registered a half-maximal inhibitory concentration (IC50) greater than 10000 nM.
In the case of `O=c1ccc2c(Cl)c(C(c3cccc(C(F)(F)F)c3)n3cncn3)ccc2[nH]1` (centres unmarked) [Compound 10], the minimal effective dose in assay [1] (setting [3]) stood at 10 mg/kg. Also, in assay [2], inhibition was half-maximal at 764 nM (IC50).
The like results for `CCC(c1cccc(C(F)(F)F)c1)(c1ccc2[nH]c(=O)ccc2c1)n1cncn1` (centres unmarked) [Compound 6] were, in that order, 10 mg/kg and 18.2 nM.
For `Cn1c(=O)ccc2cc(C(F)(c3cccc(C(F)(F)F)c3)n3cncn3)ccc21` (centres unmarked) [Compound 13], the IC50 in assay [2] came to 10.2 nM.
Take `O=c1ccc2cc(C(c3cccc(C(F)(F)F)c3)n3cncn3)cc(F)c2[nH]1` (centres unmarked) [Compound 11]: the minimal effective dose in assay [1] (setting [3]) is 10 mg/kg. The compound also yielded an IC50 in assay [2] of 154 nM.
The like results for `CC(c1cccc(C(F)(F)F)c1)(c1ccc2[nH]c(=O)ccc2c1)n1cncn1` (centres unmarked) [Compound 4] were, in that order, 5 mg/kg and 510 nM.
The like results for `Cn1c(=S)ccc2cc(C(c3cccc(C(F)(F)F)c3)n3cncn3)ccc21` (racemic) [Compound 21, (±)-1-methyl-6-[1H-1,2,4-triazol-1-yl[3-(trifluoromethyl]phenyl]methyl]-2(1H)-quinolinethione] were, in that order, 5 mg/kg and 4370 nM.
Taken in the same sequence, the figures for `Cn1c(=O)ccc2cc(C(C)(c3cccc(C(F)(F)F)c3)n3cncn3)ccc21` (centres unmarked) [Compound 14] were 5 mg/kg and 3.25 nM.
Turning to `O=c1ccc2cc([C@H](c3cccc(C(F)(F)F)c3)n3cncn3)ccc2[nH]1` [Compound 1, (-)-(R)-6-[1H-1,2,4-triazol-1-yl[3-(trifluoromethyl)phenyl]methyl]-2(1H)-quinolinone], the minimal effective dose in assay [1] (setting [3]) was 1.25 mg/kg. The IC50 in assay [2] is 850 nM.
Take `O=c1ccc2cc(C(c3cccc(C(F)(F)F)c3)n3cncn3)ccc2[nH]1` (racemic) [Compound 3, (±)-6-[1H-1,2,4-triazol-1-yl[3-(trifluoromethyl)phenyl]methyl]-2(1H)-quinolinone]: the minimal effective dose in assay [1] (setting [3]) and in assay [1] (setting [4]) was 2.5 mg/kg in each case. The IC50 in assay [2] was 851 nM.
In the case of `O=c1ccc2cc(C(c3cccc(F)c3)n3ccnc3)ccc2[nH]1` (centres unmarked) [Compound 11-a, reference compound], the minimal effective dose in assay [1] (setting [4]) worked out at 40 mg/kg.
For the compound `Cc1cc(C(c2cccc(C(F)(F)F)c2)n2cncn2)cc2ccc(=O)[nH]c12` (centres unmarked) [Compound 9], the minimal effective dose in assay [1] (setting [3]) stood at 10 mg/kg. This compound also had an IC50 in assay [2] of 706 nM.
The like results for `O=c1ccc2cc([C@@H](c3cccc(C(F)(F)F)c3)n3cncn3)ccc2[nH]1` [Compound 2] were, in that order, greater than 40 mg/kg and 3850 nM.
Taken in the same sequence, the figures for `Nn1c(=O)ccc2cc(C(c3cccc(C(F)(F)F)c3)n3cncn3)ccc21` (racemic) [Compound 20, (±)-(1-amino-6-[1H-1,2,4-triazol-1-yl-[3-(trifluoromethyl)phenyl]methyl]-2(1H)-quinolinone] were 5 mg/kg and 1470 nM.
